Tests used:
[1] = system: HepG2 cells; experiment: H2O2-induced oxidative damage model in HepG2 cells; format: cell-based; conditions: peptide 100 ng/mL pre-incubation 2 h, then H2O2 650 μM 6 h; for Protective effect against H2O2-induced oxidative damage (result in words): CCK-8 viability, vs model group
Experimental: HepG2 cells (2 × 10^5 cells/well) were seeded into 96-well plates and incubated overnight at 37 °C with 5% CO2. The supernatant was removed, and hybrid or parent peptides were added at a final concentration of 100 ng/mL for 2 h. H2O2 (Sigma-Aldrich, St. louis, MO, USA) was then added to a final concentration of 650 μM and the cells were further incubated for 6 h. Cell viability was assessed using the CCK-8 assay.

[2] = system: IPEC-J2-Lucia ARE cells; experiment: ARE luciferase reporter assay; format: cell-based; conditions: peptide 100 μg/mL, 12 h, luminescence
Source text: (§1) The ARE sequences and NF-κB element sequences are referenced in [52, 54]. Based on the sequence information, plasmids pCD-ARE-puro and pCDH-NF-κB-puro were constructed. These plasmids, along with pMD2.G and psPAX2, were transfected into HEK293T cells using a three-plasmid virus packaging system to produce viruses. The virus supernatants were then used to infect IPEC-J2 or RAW 264.7 cells, followed by positive clone screening with Puromycin. For the testing of stable cell lines, tBHQ was used for IPEC-J2-Lucia ARE cells and LPS was used for RAW-Lucia NF-κB cells.
(§2) Candidate peptides (100 μg/mL) were incubated with RAW-Lucia NF-κB or IPEC-J2-Lucia ARE cells (3 × 10⁵ cells/well) in 96-well plates for 12 h. LPS (100 ng/mL) was used as the positive control for the RAW-Lucia NF-κB cells and tBHQ (10 μM) was used as the positive control for the IPEC-J2-Lucia ARE cells. Subsequently, 15 μL of the culture supernatant was mixed with 50 μL of detection buffer (50 mM HEPES, pH 7.0; 50 mM NaCl; 0.05% CHAPS; 10 mM EDTA; and 1 μM coelenterazine). Luminescence was measured using a multimode plate reader, and relative luminescence units (RLUs) were calculated.

[3] = system: TNF-α; experiment: ELISA of TNF-α in RAW 264.7 culture supernatant; format: cell-based, mouse; conditions: RAW 264.7 cells, peptide 100 μg/mL, 24 h, vs CON group
Experimental: (§3) RAW 264.7 macrophages (2 × 10^6 cells/well) were seeded in 6-well plates and incubated for 12 h. Hybrid peptides and parent peptides were added to achieve a final concentration of 100 μg/mL, LPS (100 ng/mL) as a positive control. After 24 h of incubation, the culture supernatants were collected, and the levels of TNF-α, IL-6, and IL-1β were measured using ELISA kits according to the manufacturer’s instructions (Solarbio, Beijing, China).

[4] = system: IL-1β; experiment: ELISA of IL-1β in RAW 264.7 culture supernatant; format: cell-based, mouse; conditions: RAW 264.7 cells, peptide 100 μg/mL, 24 h, vs CON group
Experimental: as §3

[5] = system: IL-6; experiment: ELISA of IL-6 in RAW 264.7 culture supernatant; format: cell-based, mouse; conditions: RAW 264.7 cells, peptide 100 μg/mL, 24 h, vs CON group
Experimental: as §3

[6] = system: RAW-Lucia NF-κB cells; experiment: NF-κB luciferase reporter assay; format: cell-based, mouse; conditions: peptide 100 μg/mL, 12 h, luminescence, p < 0.05 vs control group
Source text: as §1, §2

Sequence	Protective effect against H2O2-induced oxidative damage (result in words) [1]	Stimulation of the ARE pathway (result in words) [2]	Expression of TNF-α (result in words) [3]	Expression of IL-1β (result in words) [4]	Expression of IL-6 (result in words) [5]	Activation of the NF-κB signaling pathway (result in words) [6]	Increase of HepG2 cell viability compared to the H2O2-treated group ([1]; CCK-8)
RKDVYYGPSSYGYG [PY, hybrid peptide of parent peptides P and Y]	significant differences compared to the model group	stimulate the ARE pathway	–	–	–	–	–
RKDVYRGPPP [PR, hybrid peptide of parent peptides P and R]	–	–	significantly upregulated	significantly upregulated	significantly upregulated	significantly activated	–
YGPSSYGYGEVVEEA [YTb, hybrid peptide of parent peptides Y and Tb]	–	–	–	particularly upregulated	particularly upregulated	–	–
EVVEEAYGPSSYGYG [TbY, hybrid peptide of parent peptides Tb and Y]	–	–	significantly upregulated	significantly upregulated	significantly upregulated	significantly activated	–
RGPPPRKDVY [RP, hybrid peptide of parent peptides R and P]	–	–	significantly upregulated	significantly upregulated	significantly upregulated	significantly activated	–
KEKKEVVEYGPSSYGYG [TaY, hybrid peptide of parent peptides Ta and Y]	significant differences compared to the model group	stimulate the ARE pathway	significantly upregulated	significantly upregulated	significantly upregulated	–	–
QLNWDRKDVY [MP, hybrid peptide of parent peptides M and P]	significant differences compared to the model group	stimulate the ARE pathway	significantly upregulated	significantly upregulated	significantly upregulated	–	–
YGPSSYGYGKEKKEVVE [YTa, hybrid peptide of parent peptides Y and Ta]	significant differences compared to the model group	–	–	–	significantly increased	significantly activated	12%
YGPSSYGYGRKDVY [YP, hybrid peptide of parent peptides Y and P]	–	stimulate the ARE pathway	–	–	–	–	–

Source: PMC11764585, “Hybridization Design and High-Throughput Screening of Peptides with Immunomodulatory and Antioxidant Activities” (International Journal of Molecular Sciences, 2025)
